Data: US7868026B2, “Therapeutic compounds” (Pfizer Inc., priority 2005, dated 2011)
Like-named read-outs stand apart in the source and are kept apart here.

Columns and labels:
Type in all cases: biochemical
CYP3A4 [1] = molecular target: T1, CYP3A4 (Homo sapiens, UniProt P08684); assay: Determination of IC50 against CYP3A4 by measurement of inhibition of midazolam metabolism (human liver microsomes, 1-hydroxymidazolam by LC-MS/MS); design: 0.1 mg/mL human liver microsomes; details: 2 μM midazolam, 0.1 mg/mL human liver microsomes
How it was run: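 Human liver microsomes (0.1 mg/mL) incubated 8 min with 2 μM midazolam and 1 mM NADPH in 100 mM potassium phosphate, pH 7.4. 1-Hydroxymidazolam quantified by LC-MS/MS (MRM) as peak area ratio to internal standard against a metabolite standard curve.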

CYP3A4 [2] = molecular target: T1, CYP3A4; assay: Determination of compound Kiapp against recombinant CYP3A4 enzyme (BFC fluorescent substrate)
How it was run: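 Recombinant CYP3A4 (5.5 or 8 nM, with or without b5 depending on source) pre-incubated with inhibitor ≥30 min at room temperature in 100 mM sodium phosphate pH 7.0, 5 mM TCEP, 2% DMF. Reaction started with 200 uM NADPH and 5 uM BFC; initial fluorescence rates over 5 min fitted to Morrison tight-binding (non-partial) or Szedlacsek (partial) equations for Kiapp.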

CYP3A4 [3] = molecular target: T1, CYP3A4; assay: Determination of IC50 against CYP3A4 by measurement of inhibition of testosterone metabolism (human liver microsomes, 6-β-OH-testosterone by LC-MS/MS); design: 0.1 mg/mL human liver microsomes; details: read-out: IC50 (Testo.)
Procedure: 2. Determination of IC50 Against CYP3A4 by Measurement of Inhibition of Testosterone Metabolism
This assay was performed using a standard 96 well plate design. […] The incubation substrate mix contains 25 μM testosterone, 0.1 mg/mL human liver microsomes, 1 mM NADPH, and potassium phosphate buffer (100 mM, pH 7.4). Quantitation of metabolite peak area ratio against an internal standard is determined by LC-MS/MS analysis. The production of 6-β-OH-testosterone from testosterone metabolism is determined after incubation for eight minutes by comparison to a standard curve generated for the metabolite
Samples were analyzed in the MRM mode using a Sciex API 3000 mass spectrometer (Applied Biosystems, Foster City, Calif.) with a Paradigm MS4 binary pump (Michrom BioResources Inc., Auburn, Calif.) and a LEAP CTC PAL autosampler (LEAP Technologies, Carrboro, N.C.). A Phenomenex Synergi, 4μ, Polar-RP, 10×2.0 mm column (Phenomenex, Torrance, Calif.) was used for separation with a mobile phase composition of: 0.1% formic acid in water (A) and: 0.1% formic acid in methanol (B). The following gradient was used: […]
The sample injection volume was 10 μL and flow was split post-column with 0.4 mL/min going to the mass spectrometer. Analysis was performed using the following API 3000 mass spectrometer settings: […]

[4] = Baculo. enzyme preparation, read-out: Kiapp (BFC, Baculo.)
[5] = Super. enzyme preparation, read-out: Kiapp (BFC, Super.)

T1 sequence (P08684 whole entry): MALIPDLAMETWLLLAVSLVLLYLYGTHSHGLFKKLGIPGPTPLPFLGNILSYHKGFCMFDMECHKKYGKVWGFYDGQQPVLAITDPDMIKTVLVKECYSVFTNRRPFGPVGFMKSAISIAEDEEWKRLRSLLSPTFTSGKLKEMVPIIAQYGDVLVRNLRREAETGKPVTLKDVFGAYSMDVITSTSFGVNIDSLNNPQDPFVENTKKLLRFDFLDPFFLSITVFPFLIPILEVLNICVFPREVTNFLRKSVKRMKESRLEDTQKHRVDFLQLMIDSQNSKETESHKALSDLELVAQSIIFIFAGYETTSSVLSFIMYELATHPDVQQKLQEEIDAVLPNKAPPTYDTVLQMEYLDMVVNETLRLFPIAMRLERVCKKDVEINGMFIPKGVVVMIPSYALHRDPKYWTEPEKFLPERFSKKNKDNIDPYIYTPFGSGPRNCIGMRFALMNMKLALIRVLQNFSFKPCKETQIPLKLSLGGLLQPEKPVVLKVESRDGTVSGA

Structure (SMILES)	IC50 (CYP3A4 [1]) [nM]	Ki (CYP3A4 [2]; [4]) [nM]	Ki (CYP3A4 [2]; [5]) [nM]	IC50 (CYP3A4 [3]) [nM]
COc1cncc(NS(=O)(=O)c2ccccc2C(=O)NCc2ccc(F)c(Cl)c2)c1 [Example 262, N-(3-chloro-4-fluorobenzyl)-2-{[(5-methoxypyridin-3-yl)amino]sulfonyl}benzamide]	5	10.2	1.63	7.5
Cc1ccc(CNC(=O)c2ccccc2S(=O)(=O)Nc2cccnc2)cc1 [Example 79, N-(4-methylbenzyl)-2-[(pyridin-3-ylamino)sulfonyl]benzamide]	30	144	26.2	177
COc1ccncc1NS(=O)(=O)c1ccccc1C(=O)N(C)C(C)C [Example 279, N-isopropyl-2-{[(4-methoxypyridin-3-yl)amino]sulfonyl}-N-methylbenzamide]	123	> 1000	95.2	337
Cc1cncc(NS(=O)(=O)c2ccccc2C(=O)NCCC(C)C)c1 [Example 362, N-(3-methylbutyl)-2-{[(5-methylpyridin-3-yl)amino]sulfonyl}benzamide]	26	94.4	22.9	44
CCOc1ccccc1CNC(=O)c1ccccc1S(=O)(=O)Nc1cccnc1 [Example 72, N-(2-ethoxybenzyl)-2-[(pyridin-3-ylamino)sulfonyl]benzamide]	27	164	12.9	< 3
COc1cncc(NS(=O)(=O)c2ccccc2C(=O)NCc2ccc3c(c2)CCO3)c1 [Example 153, N-(2,3-dihydro-1-benzofuran-5-ylmethyl)-2-{[(5-methoxypyridin-3-yl)amino]sulfonyl}benzamide]	5	262	27.1	19
O=C(NCc1cccc(F)c1F)c1ccccc1S(=O)(=O)Nc1cccnc1 [Example 87, N-(2,3-difluorobenzyl)-2-[(pyridin-3-ylamino)sulfonyl]benzamide]	30	90	6.3	10
COc1cncc(NS(=O)(=O)c2ccccc2C(=O)NCCc2cccnc2)c1 [Example 384, 2-{[(5-methoxypyridin-3-yl)amino]sulfonyl}-N-(2-pyridin-3-ylethyl)benzamide]	43	560	19.2	178
CCCCCN(C)C(=O)c1ccccc1S(=O)(=O)Nc1cnccc1OC [Example 278, 2-{[(4-methoxypyridin-3-yl)amino]sulfonyl}-N-methyl-N-pentylbenzamide]	31	131	11.9	66
O=C(NCc1ccccc1)c1ccccc1S(=O)(=O)Nc1cccnc1 [Example 12, N benzyl-2-[(pyridin-3-ylamino)sulfonyl]benzamide]	31	270	10.5	29
CCCCN(C)C(=O)c1ccccc1S(=O)(=O)Nc1cnccc1OC [Example 280, N-butyl-2-{[(4-methoxypyridin-3-yl)amino]sulfonyl}-N-methylbenzamide]	39	400	52.5	95
COc1ccncc1NS(=O)(=O)c1ccccc1C(=O)NCCc1ccccc1C [Example 275, 2-{[(4-methoxypyridin-3-yl)amino]sulfonyl}-N-[2-(2-methylphenyl)ethyl]benzamide]	9	42.9	3.76	7
Cc1ccccc1CCNC(=O)c1ccccc1S(=O)(=O)Nc1cccnc1 [Example 75, N-[2-(2-methylphenyl)ethyl]-2-[(pyridin-3-ylamino)sulfonyl]benzamide]	16	43	2.4	13
CC(C)CCNC(=O)c1ccccc1S(=O)(=O)N(C)c1cccnc1 [Example 323, N-(3-methylbutyl)-2-{[methyl(pyridin-3-yl)amino]sulfonyl}benzamide]	28	210	221	59
COc1cncc(NS(=O)(=O)c2ccccc2C(=O)N(C)Cc2ccc(F)c(F)c2)c1 [Example 285, N-(3,4-difluorobenzyl)-2-{[(5-methoxypyridin-3-yl)amino]sulfonyl}-N-methylbenzamide]	19	26	7.24	28
CCCN(CC1CC1)C(=O)c1ccccc1S(=O)(=O)N(C)c1cccnc1 [Example 337, N-(cyclopropylmethyl)-2-{[methyl(pyridin-3-yl)amino]sulfonyl}-N-propylbenzamide]	88	285	61.3	64
CCOc1cncc(NS(=O)(=O)c2ccccc2C(=O)NC(C)C2CC2)c1 (centres unmarked) [Example 299, N-(1-cyclopropylethyl)-2-{[(5-ethoxypyridin-3-yl)amino]sulfonyl}benzamide]	26	56.5	20.6	53
COc1cncc(NS(=O)(=O)c2ccccc2C(=O)N2CCOC(c3c(F)cccc3F)C2)c1 (centres unmarked) [Example 196, 2-{[2-(2,6-difluorophenyl)morpholin-4-yl]carbonyl}-N-(5-methoxypyridin-3-yl)benzenesulfonamide]	51	379	74.5	58
Cc1ccncc1NS(=O)(=O)c1ccccc1C(=O)NCc1ccc(S(C)(=O)=O)cc1 [Example 169, 2-{[(4-methylpyridin-3-yl)amino]sulfonyl}-N-[4-(methylsulfonyl)benzyl]benzamide]	139	> 1000	187	395
CCOCCNC(=O)c1ccccc1S(=O)(=O)Nc1cnccc1OCC [Example 218, N-(2-ethoxyethyl)-2-{[(4-ethoxypyridin-3-yl)amino]sulfonyl}benzamide]	96	748	146	189
CC(C)CCN(C)C(=O)c1ccccc1S(=O)(=O)Nc1cccnc1 [Example 371, N-methyl-N-(3-methylbutyl)-2-[(pyridin-3-ylamino)sulfonyl]benzamide]	5	248	58.8	10
Cc1ccccc1CCNC(=O)c1ccccc1S(=O)(=O)Nc1cnccc1C [Example 177, N-[2-(2-methylphenyl)ethyl]-2-{[(4-methylpyridin-3-yl)amino]sulfonyl}benzamide]	11	70.6	3.5	12
COc1cncc(NS(=O)(=O)c2ccc(F)cc2C(=O)NCc2ccc(F)cc2)c1 [Example 307, 5-fluoro-N-(4-fluorobenzyl)-2-{[(5-methoxypyridin-3-yl)amino]sulfonyl}benzamide]	44	143	16.8	36
CCOc1ccncc1NS(=O)(=O)c1ccccc1C(=O)NCc1ccc(F)c(C(F)(F)F)c1 [Example 250, 2-{[(4-ethoxypyridin-3-yl)amino]sulfonyl}-N-[4-fluoro-3-(trifluoromethyl)benzyl]benzamide]	10	4.3	3.14	7
O=C(c1ccccc1S(=O)(=O)Nc1cccnc1)N1CCCC1 [Example 20, N-pyridin-3-yl-2-(pyrrolidin-1-ylcarbonyl)benzenesulfonamide]	379	> 1000		445
COc1ccc(CNC(=O)c2ccccc2S(=O)(=O)Nc2cncc(OC)c2)cc1 [Example 373, N-(4-methoxybenzyl)-2-{[(5-methoxypyridin-3-yl)amino]sulfonyl}benzamide]	37	221	45	49
O=C(NC1CCC1)c1ccccc1S(=O)(=O)Nc1cccnc1 [Example 65, N-cyclobutyl-2-[(pyridin-3-ylamino)sulfonyl]benzamide]	254	920		214
COc1cncc(NS(=O)(=O)c2ccccc2C(=O)NCCc2ccccc2F)c1 [Example 258, N-[2-(2-fluorophenyl)ethyl]-2-{[(5-methoxypyridin-3-yl)amino]sulfonyl}benzamide]	6	50.9	6.49	11
